Consider 3 compounds from ChEMBL document CHEMBL2169821, “Design, synthesis, and evaluation of pH-dependent hydrolyzable emetine analogues as treatment for prostate cancer” (J Med Chem, 2012).

The nature of data set [1]: Prodrug activation in phosphate buffer assessed as emetine formation up to 48 hrs at pH 5.5 by HPLC analysis. As to conditions: pH 5.5, 48 h.
Data set [2] deals with Mus musculus. The data set is described as follows: Toxicity in Balb/c mouse assessed as adverse effects at 100 mg/kg, iv qd administered as bolus for 5 days measured up to 3 weeks. Format: organism-based. As to conditions: in vivo. Set-up: dose 100 mg/kg, route intravenous.
In data set [3] the test system is Mus musculus. In words: Toxicity in Balb/c mouse assessed as change in body weight at 100 mg/kg, iv qd administered as bolus for 5 days measured within 48 hrs relative to control. Format: organism-based. Details: dose 100 mg/kg, route intravenous. As to conditions: in vivo.
Data set [4] has as its system PC-3. In words: Cytotoxicity against human PC3 cells measured on day 7 by MTT assay. As to conditions: for IC50: Homo sapiens, PC-3, 168 h. The data set is classed as functional, cell-based. (Tetrazolium dyes change colour on reduction, which living cells bring about.)
Data set [5] has as its system LNCaP. The data set is described as follows: Cytotoxicity against human LNCAP cells measured on day 7 by MTT assay. Format: functional, cell-based. As to conditions: for IC50: Homo sapiens, LNCaP, 168 h.
Data set [6] concerns PC-3. The data set is described as follows: Ratio of compound IC50 to emetine IC50 for human PC3 cells measured on day 5 at pH <7 by MTT assay. Format: functional.
Data set [7] in a line: Chemical stability of the compound in phosphate buffer up to 5 days at pH 7.4 by HPLC analysis. The data set is classed as physicochemical. As to conditions: phosphate buffer, pH 7.4; read-out: Stability.
For data set [8], the system named is PC-3. In words: Ratio of compound IC50 to emetine IC50 for human PC3 cells measured on day 5 at pH 7.4 by MTT assay. Format: functional.
The subject of data set [9] is Mus musculus. In words: Toxicity in Balb/c mouse assessed as adverse effects at 100 mg/kg, iv qd administered as bolus for 5 days. The data set is classed as organism-based. Set-up: dose 100 mg/kg, route intravenous. As to conditions: in vivo, 120 h.
The subject of data set [10] is Mus musculus. In words: Toxicity in Balb/c mouse assessed as weight loss at 33 mg/kg, iv qd administered as bolus for 5 days measured within 48 hrs relative to untreated control. Format: organism-based. Set-up: dose 33 mg/kg, route intravenous. As to conditions: in vivo.
The subject of data set [11] is PC-3. In words: Cytotoxicity against human PC3 cells measured on day 5 by MTT assay. The data set is classed as functional, cell-based.
Data set [12] relates to Mus musculus. The data set is described as follows: Toxicity in Balb/c mouse assessed as weight loss at 33 mg/kg, iv qd administered as bolus for 5 days measured within 24 hrs (reference value: 1.7%). The data set is classed as organism-based. Set-up: dose 33 mg/kg, route intravenous. As to conditions: in vivo.
The test system of data set [13] is Mus musculus. The data set is described as follows: Toxicity in Balb/c mouse assessed as mortality at 33 mg/kg, iv qd administered as bolus for 5 days measured up to 5 days. The data set is classed as organism-based. Details: dose 33 mg/kg, route intravenous. As to conditions: in vivo, 120 h.
Data set [14] concerns Mus musculus. The data set is described as follows: Toxicity in Balb/c mouse assessed as lethargy at 33 mg/kg, iv qd administered as bolus for 5 days measured within 48 hrs. Format: organism-based. Set-up: dose 33 mg/kg, route intravenous. As to conditions: in vivo.
Data set [15] concerns DU-145. In words: Cytotoxicity against human DU145 cells by MTT assay. The data set is classed as functional, cell-based. As to conditions: TDE = time-dependent effect.
Data set [16] deals with DU-145. The data set is described as follows: Cytotoxicity against human DU145 cells measured on day 5 by MTT assay. Format: functional, cell-based.
Data set [17] deals with Mus musculus. In words: Toxicity in Balb/c mouse assessed as mortality at 100 mg/kg, iv administered as bolus measured within 48 hrs. The data set is classed as organism-based. Set-up: dose 100 mg/kg, route intravenous. As to conditions: in vivo.
The test system of data set [18] is LNCaP. In words: Cytotoxicity against human LNCAP cells by MTT assay. The data set is classed as functional, cell-based. As to conditions: TDE = time-dependent effect.
The test system of data set [19] is PC-3. In words: Cytotoxicity against human PC3 cells by MTT assay. The data set is classed as functional, cell-based. As to conditions: TDE = time-dependent effect.
Data set [20] relates to DU-145. In words: Cytotoxicity against human DU145 cells measured on day 7 by MTT assay. Format: functional, cell-based.
The test system of data set [21] is LNCaP. In words: Cytotoxicity against human LNCAP cells measured on day 3 by MTT assay. The data set is classed as functional, cell-based.
In data set [22] the test system is DU-145. The data set is described as follows: Cytotoxicity against human DU145 cells measured on day 3 by MTT assay. The data set is classed as functional, cell-based.
For data set [23], the system named is PC-3. In words: Cytotoxicity against human PC3 cells measured on day 3 by MTT assay. The data set is classed as functional, cell-based.
Data set [24] has as its system LNCaP. The data set is described as follows: Cytotoxicity against human LNCAP cells measured on day 5 by MTT assay. The data set is classed as functional, cell-based.

SMILES strings stand for the structures. The source made the active and inactive calls. No cut-off for these calls is given here.

By IC50 is commonly meant the concentration needed to halve the response being measured.

As for `CC[C@H]1CN2CCc3cc(OC)c(OC)cc3[C@@H]2C[C@@H]1C[C@@H]1c2cc(OC)c(OC)cc2CCN1C(=O)/C=C(/C)C(=O)[O-].[Na+]`, the Drug metabolism result in [1] is reported as “Active”. For the same compound, the Activity result in the data set with Mus musculus [2], with Mus musculus [3] and with Mus musculus [9] was “Non-toxic” each time. The IC50 in the data set on PC-3 [4] was found to be 428 nM; in the data set with LNCaP [5] it was 458 nM. In addition, the entries for the “Ratio IC50” value with PC-3 [6] and in the data set on PC-3 [8] were 2.5 and 16.8, respectively. The remaining at 120 h in data set [7] stood at 100%.
On to `CC[C@H]1CN2CCc3cc(OC)c(OC)cc3[C@@H]2C[C@@H]1C[C@@H]1c2cc(OC)c(OC)cc2CCN1C(=S)[S-].[Na+]`, for which the Activity with Mus musculus [10] is given as 0.67%; in the data set with Mus musculus [2] it was “Non-toxic”; in the data set on Mus musculus [3] it was “Non-toxic”; in the data set with Mus musculus [12], 2%; in the data set on Mus musculus [13], “Non-toxic”; in the data set on Mus musculus [14], “Non-toxic”. For the same compound, the Activity entry in the data set on Mus musculus [9] is reported as “Non-toxic”. The IC50 with PC-3 [4] came to 87 nM; with LNCaP [5], 79 nM. Moreover, the result with PC-3 [11] was Active. Besides, the “Ratio IC50” value is listed as 1.9 with PC-3 [6] and 16.5 in the data set on PC-3 [8]. The remaining at 120 h in [7] stood at 100%.
With `CC[C@H]1CN2CCc3cc(OC)c(OC)cc3[C@@H]2C[C@@H]1C[C@H]1NCCc2cc(OC)c(OC)cc21.Cl.Cl` [EMETINE HYDROCHLORIDE], the Activity was 3.6% in the data set on Mus musculus [10]; “Dose-dependent effect” in the data set on PC-3 [4]; “Dose-dependent effect” with PC-3 [11]; “tde” in the data set with DU-145 [15]; “Dose-dependent effect” in the data set with DU-145 [16]; 4.5% in the data set with Mus musculus [12]. Moreover, the Activity entry in the data set with Mus musculus [13] was “Non-toxic”; in the data set on Mus musculus [17], “Toxic”; with LNCaP [5], “Dose-dependent effect”; in the data set with LNCaP [18], “tde”; in the data set on PC-3 [19], “tde”; in the data set with DU-145 [20], “Dose-dependent effect”. The Activity entry was “Dose-dependent effect” in the data set on LNCaP [21]; “Toxic” with Mus musculus [14]; “Dose-dependent effect” in the data set with DU-145 [22]; “Dose-dependent effect” in the data set with PC-3 [23]; “Dose-dependent effect” with LNCaP [24]. Besides, the IC50 was 29.4 nM in the data set on PC-3 [4]; 26.8 nM in the data set with PC-3 [11] (PC-3, 120 h); 25.3 nM in the data set on DU-145 [16] (DU-145, 120 h); 31.6 nM with LNCaP [5]; 23.7 nM with DU-145 [20] (DU-145, 168 h); 37.9 nM with LNCaP [21] (72 h). Besides, the concentration for half-maximal inhibition (IC50) is 32.9 nM in the data set on DU-145 [22] (DU-145, 72 h) and 35.1 nM in the data set on PC-3 [23] (PC-3, 72 h).
